Assay results reported in patent publication US10787450B2 (BRISTOL-MYERS SQUIBB COMPANY, priority 2016, dated 2020).

Each compound was assayed against ROCK2 (Homo sapiens (Human), UniProt O75116) (assay: ROCK2 kinase inhibition assay (FITC peptide substrate, LABCHIP 3000 Reader)). Conditions: 5 μM ATP, 1.5 μM peptide substrate.
Format: biochemical
Protocol: The effectiveness of compounds of the present invention as ROCK inhibitors can be determined in a 30 μL assay containing 20 mM HEPES, pH 7.5, 20 mM MgCl2, 0.015% Brij-35, 4 mM DTT, 5 μM ATP and 1.5 μM peptide substrate (FITC-AHA-AKRRRLSSLRA-OH) (SEQ ID NO. 1). Compounds were dissolved in DMSO so that the final concentration of DMSO was <2%, and the reaction was initiated with Rho kinase variants. After incubation, the reaction was terminated by the addition of EDTA and the phosphorylated and non-phosphorylated peptides separated using a LABCHIP® 3000 Reader (Caliper Life Sciences). […] Compounds were tested in dose-response format, and the inhibition of kinase activity was calculated at each concentration of compound. The inhibition data were fit using a curve-fitting program to determine the IC50; i.e., the concentration of compound required to inhibit 50% of kinase activity.
Representative examples were tested in the ROCK2 assay described above and found having ROCK2 inhibitory activity.

Chain of ROCK2 (O75116 whole entry, species assumed): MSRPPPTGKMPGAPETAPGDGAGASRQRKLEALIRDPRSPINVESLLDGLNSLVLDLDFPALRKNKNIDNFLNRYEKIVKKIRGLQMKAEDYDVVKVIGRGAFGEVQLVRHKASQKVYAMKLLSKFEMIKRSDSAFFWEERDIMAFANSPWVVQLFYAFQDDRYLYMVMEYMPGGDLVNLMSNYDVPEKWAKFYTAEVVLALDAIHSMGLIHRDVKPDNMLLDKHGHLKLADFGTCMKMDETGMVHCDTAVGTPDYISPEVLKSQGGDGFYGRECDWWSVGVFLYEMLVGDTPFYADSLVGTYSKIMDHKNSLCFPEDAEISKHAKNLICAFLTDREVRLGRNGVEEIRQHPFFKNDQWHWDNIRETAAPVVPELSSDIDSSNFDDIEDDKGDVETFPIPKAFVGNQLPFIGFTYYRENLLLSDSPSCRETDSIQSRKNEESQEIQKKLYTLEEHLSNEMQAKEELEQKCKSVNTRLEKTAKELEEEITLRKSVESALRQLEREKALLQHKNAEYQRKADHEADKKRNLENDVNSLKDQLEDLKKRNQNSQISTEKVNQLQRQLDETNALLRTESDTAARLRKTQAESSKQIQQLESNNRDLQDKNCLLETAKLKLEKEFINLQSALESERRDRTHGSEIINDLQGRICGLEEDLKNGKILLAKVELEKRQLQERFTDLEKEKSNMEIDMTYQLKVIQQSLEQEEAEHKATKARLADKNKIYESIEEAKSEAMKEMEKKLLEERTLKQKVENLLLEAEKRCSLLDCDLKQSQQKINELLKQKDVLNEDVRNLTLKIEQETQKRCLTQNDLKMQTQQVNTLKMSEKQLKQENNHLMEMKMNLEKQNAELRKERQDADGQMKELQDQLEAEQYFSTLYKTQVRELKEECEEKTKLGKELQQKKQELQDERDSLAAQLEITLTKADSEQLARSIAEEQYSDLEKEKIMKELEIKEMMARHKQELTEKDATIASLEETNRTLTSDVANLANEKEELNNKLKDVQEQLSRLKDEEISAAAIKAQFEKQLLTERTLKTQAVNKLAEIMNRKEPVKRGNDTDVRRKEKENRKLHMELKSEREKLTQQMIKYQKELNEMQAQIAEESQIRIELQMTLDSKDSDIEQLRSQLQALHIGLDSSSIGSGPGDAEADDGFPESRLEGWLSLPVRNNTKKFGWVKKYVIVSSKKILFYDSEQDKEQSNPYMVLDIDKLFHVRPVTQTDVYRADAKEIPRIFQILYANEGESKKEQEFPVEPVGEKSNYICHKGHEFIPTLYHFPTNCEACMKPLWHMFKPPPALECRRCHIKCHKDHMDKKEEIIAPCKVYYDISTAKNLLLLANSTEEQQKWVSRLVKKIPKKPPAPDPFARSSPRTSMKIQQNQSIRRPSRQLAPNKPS

Row | SMILES | IC50 [nM]
1 | CCc1nc(N2CC3(CCN(C(=O)CN(C)C)CC3)N(Cc3cccc(OC)c3)C2=O)ccc1-c1cn[nH]c1 [Example 203, 8-(2-(dimethylamino)acetyl)-3-(6-ethyl-5-(1H-pyrazol-4-yl)pyridin-2-yl)-1-(3-methoxybenzyl)-1,3,8-triazaspiro[4.5]decan-2-one] | < 3
2 | COc1cccc(NC2C(=O)N(c3ccc(-c4cn[nH]c4)cc3)CC23CCN(CC(C)(C)O)CC3)c1 (stereo not shown) [Example 253, 2-(4-(1H-pyrazol-4-yl)phenyl)-8-(2-hydroxy-2-methylpropyl)-4-((3-methoxy-phenyl)amino)-2,8-diazaspiro [4.5]decan-3-one] | 250 to 3000
3 | O=C1N(c2ccc(-c3cn[nH]c3)cc2)CC2(CCOCC2)N1Cc1cc(F)cc(F)c1 [Example 24, 3-(4-(1H-pyrazol-4-yl)phenyl)-1-(3,5-difluorobenzyl)-8-oxa-1,3-diazaspiro[4.5]decan-2-one] | 3 to 30
4 | COc1cccc(CN2C(=O)N(c3ccc(-c4cn[nH]c4)c(OC)n3)CC23CCN(CC(C)(C)O)CC3)c1 [Example 148, 8-(2-hydroxy-2-methylpropyl)-3-(6-methoxy-5-(1H-pyrazol-4-yl)pyridin-2-yl)-1-(3-methoxybenzyl)-1,3,8-triazaspiro[4.5]decan-2-one] | < 3
5 | COc1cc(F)cc(CN2C(=O)N(c3ccc(-c4cn[nH]c4)cc3)CC23CCN(CC(F)F)CC3)c1 [Example 132, 3-(4-(1H-pyrazol-4-yl)phenyl)-8-(2,2-difluoroethyl)-1-(3-fluoro-5-methoxybenzyl)-1,3,8-triazaspiro[4.5]decan-2-one] | < 3
6 | O=C(c1cccc(CN2C(=O)N(c3ccc(-c4cn[nH]c4)cc3)CC23CCOCC3)c1)N1CCC(CO)CC1 [Example 47, 3-(4-(1H-pyrazol-4-yl)phenyl)-1-(3-(4-(hydroxymethyl)piperidine-1-carbonyl)benzyl)-8-oxa-1,3-diazaspiro[4.5]decan-2-one] | 3 to 30
7 | COc1nc(N2CC3(CCN(CC(F)F)CC3)N(Cc3cccc(F)c3C)C2=O)ccc1-c1cn[nH]c1 [Example 137] | < 3
8 | COc1cccc(NC2C(=O)N(c3ccc(-c4cn[nH]c4)cn3)CC23CCN(C(=O)CCc2nnc(-c4ccccc4)o2)CC3)c1 (stereo not shown) [Example 258, 2-(5-(1H-pyrazol-4-yl)pyridin-2-yl)-4-((3-methoxy-phenyl)amino)-8-(3-(5-phenyl-1,3,4-oxadiazol-2-yl)pro-panoyl)-2,8-diazaspiro [4.5]decan-3-one] | 30 to 250
9 | COc1cccc(CN2C(=O)N(c3ccc(-c4cn[nH]c4)cc3)CC23CCN(CC(O)CO)CC3)c1 (stereo not shown) [Example 120, 3-(4-(1H-pyrazol-4-yl)phenyl)-8-(2,3-dihydroxypropyl)-1-(3-methoxybenzyl)-1,3,8-triazaspiro[4.5]decan-2-one] | < 3
10 | COc1cccc(CN2C(=O)N(c3ccc(-c4cn[nH]c4)c(C)n3)CC23CCNCC3)c1 [Example 74, 1-(3-methoxybenzyl)-3-(6-methyl-5-(1H-pyrazol-4-yl)pyridin-2-yl)-1,3,8-triazaspiro[4.5]decan-2-one] | 3 to 30
11 | CCCN1CCC2(CC1)CN(c1ccc(-c3cn[nH]c3)cc1)C(=O)N2Cc1cccc(OC)c1 [Example 116, 3-(4-(1H-pyrazol-4-yl)phenyl)-1-(3-methoxybenzyl)-8-propyl-1,3,8-triazaspiro[4.5]decan-2-one] | < 3
12 | COc1cccc(CN2C(=O)N(c3ccc(-c4cn[nH]c4)cc3)CC23CCN(CCO)CC3)c1 [Example 141, 3-(4-(1H-pyrazol-4-yl)phenyl)-8-(2-hydroxyethyl)-1-(3-methoxybenzyl)-1,3,8-triazaspiro[4.5]decan-2-one] | < 3
13 | O=C1N(c2ccc(-c3cn[nH]c3)cc2)CC2(CCNCC2)N1Cc1cccc(OC(F)F)c1 [Example 61, 3-(4-(1H-pyrazol-4-yl)phenyl)-1-(3-(difluoromethoxy)benzyl)-1,3,8-triazaspiro[4.5]decan-2-one] | 3 to 30
14 | COc1cccc(CN2C(=O)N(c3ccc(-c4cn[nH]c4)cn3)CC23CCN(C2COC2)CC3)c1 [Example 237, 3-(5-(1H-pyrazol-4-yl)pyridin-2-yl)-1-(3-methoxy-benzyl)-8-(oxetan-3-yl)-1,3,8-triazaspiro [4.5]decan-2-one] | < 3
15 | COc1cccc(CN2C(=O)N(c3ncc(-c4cn[nH]c4)c(OC)n3)CC23CCN(C(=O)C2CC(F)(F)C2)CC3)c1 [Example 209, 8-(3,3-difluorocyclo-butanecarbonyl)-3-(4-methoxy-5-(1H-pyrazol-4-yl)pyrimidin-2-yl)-1-(3-methoxybenzyl)-1,3,8-triazaspiro[4.5]decan-2-one] | 3 to 30
16 | COC(=O)N1CCC2(CC1)CN(c1ccc(-c3cn[nH]c3)cc1)C(=O)C2Nc1cccc(OC)c1 (stereo not shown) [Example 251, methyl 2-(4-(1H-pyrazol-4-yl)phenyl)-4-((3-methoxy-phenyl)amino)-3-oxo-2,8-diazaspiro [4.5]decane-8-carboxylate] | 250 to 3000

Row | SMILES | IC50 [nM]
17 | CCc1nc(N2CC3(CCN(C(=O)C(C)(C)O)CC3)N(Cc3cccc(OC)c3)C2=O)ccc1-c1cn[nH]c1 [Example 205, 3-(6-ethyl-5-(1H-pyrazol-4-yl)pyridin-2-yl)-8-(2-hydroxy-2-methylpropanoyl)-1-(3-methoxybenzyl)-1,3,8-triazaspiro[4.5]decan-2-one] | 3 to 30
18 | COc1cc(CN2C(=O)N(c3ccc(-c4cn[nH]c4)cc3)CC23CCNCC3)ccc1F [Example 59, 3-(4-(1H-pyrazol-4-yl)phenyl)-1-(4-fluoro-3-methoxybenzyl)-1,3,8-triazaspiro[4.5]decan-2-one] | < 3
19 | CCc1nc(N2CC3(CCN(CC(F)F)CC3)N(Cc3cccc(F)c3C)C2=O)ccc1-c1cn[nH]c1 [Example 130, 8-(2,2-difluoroethyl)-3-(6-ethyl-5-(1H-pyrazol-4-yl)pyridin-2-yl)-1-(3-fluoro-2-methylbenzyl)-1,3,8-triazaspiro[4.5]decan-2-one] | 3 to 30
20 | CCc1nc(N2CC3(CCN(C(=O)CC(C)C)CC3)N(Cc3cccc(OC)c3)C2=O)ccc1-c1cn[nH]c1 [Example 200, 3-(6-ethyl-5-(1H-pyrazol-4-yl)pyridin-2-yl)-1-(3-methoxybenzyl)-8-(3-methylbutanoyl)-1,3,8-triazaspiro[4.5]decan-2-one] | < 3
21 | COc1cccc(CN2C(=O)N(c3ccc(-c4cn[nH]c4)cc3)CC23CCN(C(=O)C2CCC2)CC3)c1 [Example 172, 3-(4-(1H-pyrazol-4-yl)phenyl)-8-(cyclobutanecarbonyl)-1-(3-methoxybenzyl)-1,3,8-triazaspiro[4.5]decan-2-one] | < 3
22 | Cc1ccc(F)cc1CN1C(=O)N(c2ccc(-c3cn[nH]c3)cc2)CC12CCOCC2 [Example 27, 3-(4-(1H-pyrazol-4-yl)phenyl)-1-(5-fluoro-2-methylbenzyl)-8-oxa-1,3-diazaspiro[4.5]decan-2-one] | 30 to 250
23 | COCC(=O)N1CCC2(CC1)CN(c1ccc(-c3cn[nH]c3)c(OC)n1)C(=O)N2Cc1cccc(OC)c1 [Example 219, 3-(6-methoxy-5-(1H-pyrazol-4-yl)pyridin-2-yl)-8-(2-methoxyacetyl)-1-(3-methoxybenzyl)-1,3,8-triazaspiro[4.5]decan-2-one] | < 3
24 | COc1cccc(CN2C(=O)N(c3ccc(-c4cn[nH]c4)cc3)CC23CCN(CC2CCCC2)CC3)c1 [Example 118, 3-(4-(1H-pyrazol-4-yl)phenyl)-8-(cyclopentylmethyl)-1-(3-methoxybenzyl)-1,3,8-triazaspiro[4.5]decan-2-one] | < 3
25 | COc1nc(N2CC3(CCN(CC(C)O)CC3)N(Cc3cccc(F)c3C)C2=O)ccc1-c1cn[nH]c1 (stereo not shown) [Example 166, 1-(3-fluoro-2-methylbenzyl)-8-(2-hydroxypropyl)-3-(6-methoxy-5-(1H-pyrazol-4-yl)pyridin-2-yl)-1,3,8-triazaspiro[4.5]decan-2-one] | < 3
26 | COc1cccc(CN2C(=O)N(c3ccc(-c4cn[nH]c4)c(OC)n3)CC23CCN(CCO)CC3)c1 [Example 146, 8-(2-hydroxyethyl)-3-(6-methoxy-5-(1H-pyrazol-4-yl)pyridin-2-yl)-1-(3-methoxybenzyl)-1,3,8-triazaspiro[4.5]decan-2-one] | < 3
27 | COc1cccc(NC2C(=O)N(c3ccc(-c4cn[nH]c4)cc3)CC23CN(C(=O)C(C)(C)O)C3)c1 (stereo not shown) [Example 246, 6-(4-(1H-pyrazol-4-yl)phenyl)-2-(2-hydroxy-2-methylpro-panoyl)-8-((3-methoxy-phenyl)amino)-2,6-diazaspiro [3.4]octan-7-one] | 250 to 3000
28 | CC(=O)N1CCC2(CC1)CN(c1ccc(-c3cn[nH]c3)cc1)C(=O)N2Cc1cc(F)ccc1F [Example 78, 3-(4-(1H-pyrazol-4-yl)phenyl)-8-acetyl-1-(2,5-difluorobenzyl)-1,3,8-triazaspiro[4.5]decan-2-one] | 30 to 250
29 | O=C1N(c2ccc(-c3cn[nH]c3)cc2)CC2(CCNCC2)N1CC1CCOCC1 [Example 72, 3-(4-(1H-pyrazol-4-yl)phenyl)-1-((tetrahydro-2H-pyran-4-yl)methyl)-1,3,8-triazaspiro[4.5] decan-2-one] | 250 to 3000
30 | COc1cccc(CN2C(=O)N(c3ccc(-c4cn[nH]c4)c(OC)n3)CC23CCN(C(=O)CO)CC3)c1 [Example 220, 8-(2-hydroxyacetyl)-3-(6-methoxy-5-(1H-pyrazol-4-yl)pyridin-2-yl)-1-(3-methoxybenzyl)-1,3,8-triazaspiro[4.5]decan-2-one] | < 3
31 | CCc1nc(N2CC3(CCN(C(=O)C(C)(C)CO)CC3)N(Cc3cccc(OC)c3)C2=O)ccc1-c1cn[nH]c1 [Example 204, 3-(6-ethyl-5-(1H-pyrazol-4-yl)pyridin-2-yl)-8-(3-hydroxy-2,2-dimethylpropanoyl)-1-(3-methoxybenzyl)-1,3,8-triazaspiro[4.5]decan-2-one] | < 3
